Measurements as given in patent publication US20260285869A1, “COMPOUNDS, COMPOSITIONS AND METHODS THEREOF” (HEPAITECH (BEIJING) BIOPHARMA TECHNOLOGY CO., LTD., priority 2023, published 2026).

Biological target: T1, human MRGPRX4 (Homo sapiens, UniProt Q96LA9)
T1 construct: expressed in transfected cells
Test: MRGPRX4 antagonist calcium assay (FLIPR, Fluo-8) in HEK293T cells stably expressing human MRGPRX4
Assay type: cell-based
Details: antagonist mode against 0.2 μM deoxycholic acid-3-phosphoric acid; for inhibition at 0.5 µM / inhibition at 2 µM: HEK-293T, HEK293T cells expressing human MRGPRX4; for inhibition at 0.5 µM: compound at 500 nM; for IC50: top conc. 30 μM, ten 3-fold serial dilutions, class symbols; for inhibition at 2 µM: compound at 2 μM
Protocol: HEK293T cells stably expressing human MRGPRX4 were cultured in DMEM medium supplements with 10% FBS, 100 U/mL penicillin-streptomycin, 20 mM HEPES and 1 μg/mL puromycin at 37° C. with 5% (v/v) CO2. One day before test, the cells were detached using TrypLE™ Express and counted using cell counter. In a 384-well plate cells were seeded at a density of 20,000 cells/well in 20 μL/well planting medium (DMEM medium supplements with 5% FBS, 100 U/mL penicillin-streptomycin and 20 mM HEPES), and incubated overnight at 37° C. with 5% (v/v) CO2. On the day of experiments, the dye solution, prepared following the manufacture's instruction of the Screen Quest™ Fluo-8 No Wash Calcium Assay Kit, was added to each well (20 μL/well) of the cell plate. The cell plate was incubated at 25° C. for 1 hour. Test compounds in different doses were transferred to the cell plate by FLIPR and the plate was kept in the dark at 25° C. for 30 minutes. The agonist solution, 0.2 μM of deoxycholic acid-3-phosphoric acid in assay buffer, was added to each well of the plate. The plate was read for 160 sec with 1 sec interval to obtain data of antagonist mode in FLIPR. […] Those skilled in the art appreciate that IC50 of various compounds can be assessed in accordance with the present disclosure.

T1 sequence (Q96LA9 whole entry): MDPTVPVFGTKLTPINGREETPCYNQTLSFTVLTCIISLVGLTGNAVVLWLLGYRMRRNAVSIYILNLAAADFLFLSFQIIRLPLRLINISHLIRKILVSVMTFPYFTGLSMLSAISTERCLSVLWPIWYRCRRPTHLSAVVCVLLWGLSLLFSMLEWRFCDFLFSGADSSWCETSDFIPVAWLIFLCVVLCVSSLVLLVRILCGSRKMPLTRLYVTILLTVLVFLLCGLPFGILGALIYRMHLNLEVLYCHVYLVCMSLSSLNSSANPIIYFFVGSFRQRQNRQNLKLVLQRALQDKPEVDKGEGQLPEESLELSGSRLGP

Row | Structure (SMILES) | inhibition at 0.5 µM | IC50 | inhibition at 2 µM
1 | O=C(O)c1c(F)ccc2c1ccn2Cc1ccc(C(F)(F)F)c(Cl)c1 [Compound 1] | 78% | < 500 nM | –
2 | O=C(O)c1c(F)ccc2c1ccn2Cc1cccc(C(F)(F)F)c1Cl [Compound 2] | 98% | < 500 nM | –
3 | O=C(O)c1cccc2c1ccn2Cc1ccc(C(F)(F)F)cc1 [Compound 3] | – | 500 to 5000 nM | 34%
4 | O=C(O)c1cccc2c1ccn2Cc1ccc(C(F)(F)F)cc1Cl [Compound 4] | – | < 500 nM | 91%
5 | O=C(O)c1cccc2c1CCN2Cc1ccc(C(F)(F)F)cc1 [Compound 5] | – | > 5000 nM | 40%
6 | O=C(O)c1cccc2c1CCN2Cc1ccc(C(F)(F)F)cc1Cl [Compound 6] | – | – | 18%
7 | O=C(O)c1cccc2c1ccn2Cc1ccc(OC(F)(F)F)cc1 [Compound 7] | 20% | – | –
8 | O=C(O)c1cccc2c1ccn2Cc1ccc(OC(F)(F)F)c(Cl)c1 [Compound 8] | 64% | < 500 nM | –
9 | O=C(O)c1cccc2c1ccn2Cc1cccc(C(F)(F)F)c1 [Compound 9] | -1.6% | – | –
10 | O=C(O)c1cccc2c1ccn2Cc1ccc(Cl)c(C(F)(F)F)c1 [Compound 10] | 90% | < 500 nM | –
11 | O=C(O)c1cccc2c1ccn2Cc1ccccc1C(F)(F)F [Compound 11] | -1.2% | – | –
12 | O=C(O)c1cccc2c1ccn2Cc1cccc(C(F)(F)F)c1Cl [Compound 12] | – | < 500 nM | 101%
13 | O=C(O)c1ncnc2c1ccn2Cc1cccc(C(F)(F)F)c1Cl [Compound 13] | 27% | – | –
14 | O=C(O)c1ncnc2c1ccn2Cc1ccc(C(F)(F)F)c(Cl)c1 [Compound 14] | 12% | – | –
15 | CC(c1ccc(C(F)(F)F)cc1)n1ccc2c(C(=O)O)cccc21 (centres unmarked) [Compound 15] | 5.3% | – | –
16 | O=C(O)c1cccc2c1ccn2Cc1ccc(C(F)(F)F)cc1F [Compound 16] | – | < 500 nM | 94%
17 | Cc1cn(Cc2cc(C(F)(F)F)ccc2Cl)c2cccc(C(=O)O)c12 [Compound 17] | – | – | 3.6%
18 | Cc1cc2c(C(=O)O)cccc2n1Cc1cc(C(F)(F)F)ccc1Cl [Compound 18] | – | – | 7.2%
19 | O=C(O)c1cccc2c1ccn2Cc1ccc(C(F)(F)F)c(Cl)c1 [Compound 19, 1-(3-chloro-4-(trifluoromethyl)benzyl)-1H-indole-4-carboxylic acid] | – | < 500 nM | 99.7%
20 | Cc1cn(Cc2ccc(C(F)(F)F)cc2Cl)c2cccc(C(=O)O)c12 [Compound 20] | – | 500 to 5000 nM | 97%
21 | Cc1cc2c(C(=O)O)cccc2n1Cc1ccc(C(F)(F)F)cc1Cl [Compound 21] | – | – | 52%
22 | O=C(O)c1cccc2c1ccn2Cc1c(Cl)cccc1C(F)(F)F [Compound 22] | – | – | 2.4%
23 | O=C(O)c1cccc2c1ccn2Cc1cc(Cl)cc(C(F)(F)F)c1 [Compound 23] | – | – | 29%
24 | O=C(O)c1cccc2c1ccn2Cc1cccc(C(F)(F)F)c1F [Compound 24] | 20% | – | –
25 | O=C(O)c1cccc2c1ccn2CCc1ccc(C(F)(F)F)cc1Cl [Compound 25] | – | > 5000 nM | –
26 | O=C(O)c1cccc2c1ncn2Cc1ccc(C(F)(F)F)cc1Cl [Compound 26] | – | – | 49%
27 | O=C(O)c1cccc2c1cnn2Cc1ccc(C(F)(F)F)cc1Cl [Compound 27] | – | – | 72%

Row | Structure (SMILES) | inhibition at 0.5 µM | IC50 | inhibition at 2 µM
28 | O=C(O)c1cc(F)cc2c1ccn2Cc1cccc(C(F)(F)F)c1Cl [Compound 28] | 86% | < 500 nM | –
29 | O=C(O)c1cc(Cl)cc2c1ccn2Cc1cccc(C(F)(F)F)c1Cl [Compound 29] | 76% | < 500 nM | –
30 | O=C(O)c1cc(Br)cc2c1ccn2Cc1cccc(C(F)(F)F)c1Cl [Compound 30] | 97% | < 500 nM | –
31 | O=C(O)c1cccc2c1ccn2Cc1c(Cl)cc(C(F)(F)F)cc1Cl [Compound 31] | – | – | -6.2%
32 | O=C(O)c1cccc2c1ccn2Cc1c(Cl)cccc1Cl [Compound 32] | – | – | -13%
33 | O=C(O)c1cccc2c1ccn2Cc1ccc(C(F)(F)F)cc1Br [Compound 33] | – | 500 to 5000 nM | 98%
34 | O=C(O)c1cccc2c1cnn2Cc1cc(C(F)(F)F)ccc1Cl [Compound 34] | – | – | -2.4%
35 | O=C(O)c1cccc2c1ccn2Cc1cc(C(F)(F)F)ccc1Cl [Compound 35] | – | – | 5.1%
36 | O=C(O)c1cccc2c1ccn2Cc1ccccc1Cl [Compound 36] | – | – | 0.4%
37 | O=C(O)c1cccc2c1ccn2CCc1cc(C(F)(F)F)ccc1Cl [Compound 37] | – | – | 5.5%
38 | O=C(O)c1cc(C2CC2)cc2c1ccn2Cc1cccc(C(F)(F)F)c1Cl [Compound 38] | 44% | – | –
39 | O=C(O)c1cc(-c2ccccc2)cc2c1ccn2Cc1cccc(C(F)(F)F)c1Cl [Compound 39] | 1.6% | – | –
40 | O=C(O)c1ccc(Cl)c2c1ccn2Cc1cccc(C(F)(F)F)c1Cl [Compound 40] | 4.9% | – | –
41 | FC(F)(F)c1ccc(Cn2ccc3c(-c4nnn[nH]4)cccc32)cc1 [Compound 41] | – | – | 81%
42 | FC(F)(F)c1ccc(Cn2ccc3c(-c4nnn[nH]4)cccc32)c(Cl)c1 [Compound 42] | – | < 500 nM | 100%
43 | Fc1cc(C(F)(F)F)ccc1Cn1ccc2c(-c3nnn[nH]3)cccc21 [Compound 43] | – | < 500 nM | 96%
44 | FC(F)(F)c1cccc(Cn2ccc3c(-c4nnn[nH]4)cccc32)c1Cl [Compound 44] | – | 500 to 5000 nM | 65%
45 | FC(F)(F)c1ccc(Cn2ccc3c(-c4nnn[nH]4)cccc32)c(Br)c1 [Compound 45] | – | < 500 nM | 100%
46 | FC(F)(F)c1ccc(Cn2ccc3c(-c4nnn[nH]4)cccc32)cc1Cl [Compound 46] | – | < 500 nM | 99.9%
47 | FC(F)(F)c1cccc(Cn2ccc3c(-c4nnn[nH]4)ncnc32)c1Cl [Compound 47] | 13% | – | –
48 | FC(F)(F)c1ccc(Cn2ccc3c(-c4nnn[nH]4)ncnc32)cc1Cl [Compound 48] | 4.3% | – | –
49 | Fc1cc(-c2nnn[nH]2)c2ccn(Cc3cccc(C(F)(F)F)c3Cl)c2c1 [Compound 50] | -11.2% | – | –
50 | Fc1ccc2c(ccn2Cc2ccc(C(F)(F)F)c(Cl)c2)c1-c1nnn[nH]1 [Compound 51] | 99.9% | < 500 nM | –
51 | NC(=O)c1cccc2c1ccn2Cc1cccc(C(F)(F)F)c1Cl [Compound 53] | -7.6% | – | –
52 | NC(=O)c1cccc2c1ccn2Cc1ccc(C(F)(F)F)c(Cl)c1 [Compound 54] | 11% | – | –
53 | NC(=O)c1c(F)ccc2c1ccn2Cc1cccc(C(F)(F)F)c1Cl [Compound 55] | 36% | – | –
